# Data: patent US20100168016A1, “DIAGNOSIS AND TREATMENT OF DISEASES CAUSED BY MISFOLDED PROTEINS” (THE JACKSON LABORATORY, priority 2007, published 2010)
# Residues, ends and D or L forms follow the SMILES beside them. *: point of attachment. Cbz = O=C(OCc1ccccc1)*
# Columns and labels:
# [1] = test system: HA-ANKRD16^CAST-transfected COS-7 cells; test: subcellular localization of ANKRD16 in transfected COS-7 cells; format: cell-based, monkey; settings: for relocalization of ANKRD16: 10 μM MG132 or 10 μM epoximicin or 3-MA, 24 hours after transfection, within 12 hours of treatment
# Experimental: Cellular localization of full-length ANKRD16 was determined by transfection of epitope-tagged full-length ANKRD16^CAST into monkey kidney fibroblast COS-7 cells and human alveolar epithelial A549 cells. The ANKRD16 coding sequence was amplified by polymerase chain reaction from cDNA by using Pfu DNA polymerase (Stratagene), purified by agarose gel electrophoresis and ligated in-frame with the HA-tag into the pcDNA3 vector. This clone encoded a fusion ANKRD16 with the tag at its C-terminus. All DNA constructs were confirmed by sequencing. COS-7 and A549 cells were maintained in Dulbecco's modified Eagle's medium (Sigma-Aldrich). All cells were grown at 37° C. in 5% CO2 and supplemented with 10% (vol/vol) fetal calf serum, 100 U/ml penicillin and 100 μg/ml streptomycin. Transfections were performed using Lipofectamine 2000 transfection reagent (Invitrogen, USA) according to the manufacturer's protocol. Cells were cultured for 48 h after transfection.
# To determine if the induction of autophagy changes the intracellular localization of ANKRD16, we treated transfected cells with rapamycin to induce macroautophagy (data not shown) or performed serum starvation experiments (known to induce chaperone-mediated autophagy after 18 hours) on transfected cells (data not shown). COS-7 cells were transfected with full-length HA-ANKRD16^CAST constructs. […] Nor was co-localization observed with endosome, autophagosome or lysosome markers (data not shown) in the presence or absence of rapamycin or proteasome inhibitors administered as described below.
# Several proteins that regulate protein folding and/or the disposal of misfolded proteins are induced or change their subcellular localization in response to misfolded protein stress. To examine if subcellular localization changes with intracellular accumulation of misfolded proteins, we treated full-length HA-ANKRD16^CAST-transfected COS-7 cells 24 hours after transfection with proteosome inhibitors, 10 μM MG132 (Sigma-Aldrich) or 10 μM epoximicin (Sigma-Aldrich) or blocked autophagy with 3-methyladenine (3-MA; Sigma-Aldrich). […]
# For immunostaining the cells were fixed with 4% paraformaldehyde (PFA) at room temperature for 5 min, then incubated with anti-ubiquitin, anti-HA, anti-r-tubulin, and anti-vimentin antibodies overnight at 4° C. […] The fluorescence was detected under a fluorescence microscope.
# [2] = test system: mouse embryonic fibroblasts from CASTEi/J mice; test: aggresome localization of ANKRD16 in fibroblasts under proteasomal stress; format: cell-based; settings: 1 μM epoximicin for 18 hours
# Experimental: Mouse embryonic fibroblasts were isolated from CASTEi/J mice. To isolate embryonic fibroblasts, CASTEi/J mice were paired for time of pregnancy. E13.5 day pregnant female mice for each of the strains were sacrificed. The time point E0.5 is the morning of finding a plug after pairing a female with a male. The uteri were removed and placed into a dish with PBS and washed. The embryos were isolated free of extraembryonic tissue and washed in PBS. Each embryo was placed into a separate 14 ml tube containing 3 ml of media (DMEM, 10% FBS) and homogenized for 2 seconds. The homogenized tissues were put into 145 mm tissue culture plates (e.g. CellStar from USA Scientific cat.#5663-9160) containing 20 ml of media (DMEM, 10% FBS). The cells were incubated at 37° C. in 5% CO2 until cells were confluent, which was on average from 5 to 7 days. The cells were expanded according to standard tissue culture methods using trypsin and the same passage number for each cell line was used for the experiment. To stress the fibroblast they were treated for 18 hours with 1 μM epoximicin, a proteosome inhibitor (Genaxxon). Then untreated and treated cells were fixed, visualized for ANKRD16 expression using indirect immunofluorescence with polyclonal ANKRD16 rabbit antibody as primary antibody and Alexa555-conjugated anti-rabbit IgG (Invitrogen, Molecular Probes) as secondary antibody. […]
SMILES,relocalization of ANKRD16 [1],localization of ANKRD16 [2],formation of the aggresome structure ([1]; 10 μg/ml nocodazole)
CC[C@H](C)[C@H](NC(=O)[C@H]([C@@H](C)CC)N(C)C(C)=O)C(=O)N[C@H](C(=O)N[C@@H](CC(C)C)C(=O)[C@@]1(C)CO1)[C@@H](C)O [epoximicin],Relocalization of ANKRD16 to a juxtanuclear structure,relocalized to the aggresome,
CC(C)C[C@@H](C=O)NC(=O)[C@H](CC(C)C)NC(=O)[C@H](CC(C)C)NC(=O)OCc1ccccc1 [MG132] (Cbz-Leu-Leu-Leu-aldehyde),Relocalization of ANKRD16 to a juxtanuclear structure,,
COC(=O)Nc1nc2ccc(C(=O)c3cccs3)cc2[nH]1 [nocodazole],,,disrupted
Cn1cnc(N)c2ncnc1-2 [3-methyladenine],Relocalization of ANKRD16 to a juxtanuclear structure,,
